Legend:
A549 = test: Cytotoxicity against human A549 cells by MTT assay; type: functional, cell-based
NCI-H460 = test: Cytotoxicity against human H460 cells by MTT assay; type: functional, cell-based

With `C/C=C/C(=O)OCC1=C[C@H]2O[C@](C)(OC)[C@@](C)(OC)O[C@@H]2[C@H](F)C1=O` as the compound, how does the IC50 (A549) read?
The IC50 was 31 µM.

What about the IC50 (NCI-H460) of the same compound?
The IC50 was 43 µM.

How did the IC50 (A549) turn out when `C/C=C/C(=O)OCC1=CCCCC1=O` was run?
The IC50 was 55 µM.

And the IC50 (NCI-H460)?
Its IC50 is 40 µM.

For `C/C=C/C(=O)OCC1=CC(O)CCC1=O` (configuration not stated), which IC50 (A549) is on record?
Its IC50 is 24 µM.

What about the IC50 (NCI-H460) of the same compound?
The IC50 was 10 µM.

How did the IC50 (A549) turn out when `C/C=C/C(=O)OCC1=C[C@@H](O)[C@H](O)CC1=O` was run?
Its IC50 is 147 µM.

What about the IC50 (NCI-H460) of the same compound?
Its IC50 is 158 µM.

With `C/C=C/C(=O)OCC1=C[C@@H](O)[C@H](O)[C@H](F)C1=O` as the compound, how does the IC50 (A549) read?
Its IC50 is 164 µM.

And the IC50 (NCI-H460)?
The IC50 was > 200 µM.

Which IC50 (A549) does the source give for `C/C=C/C(=O)OCC1=C[C@H]2O[C@](C)(OC)[C@@](C)(OC)O[C@@H]2CC1=O` here?
Its IC50 is 32 µM.

And the IC50 (NCI-H460)?
The IC50 was 60 µM.

From ChEMBL document CHEMBL1139066, “Analogues of 2-crotonyloxymethyl-(4R,5R,6R)-4,5,6-trihydroxycyclohex-2-enone (COTC) with anti-tumor properties” (Bioorg Med Chem Lett, 2007)
